Data published in patent US20240010681A1, “PEPTIDES AND METHODS OF USE” (REALTA LIFE SCIENCES, INC., priority 2020, published 2024).

Assays:
C5a = C5a ELISA in plasma, two-hit ALI rat model; assay type: in vivo
Method: C5a was then measured in each sample by ELISA and absorbance was read at 450 nm. Two replicates for each animal were measured for every time point. Data are means and standard error of the mean. Statistical analysis was performed using were conducted using bootstrap approach or Welch's ANOVA. * denotes p=0.010, ** denotes p=0.004, *** denotes p=0.002, and **** denotes p≤0.001 compared to 2-hit animals.
Animals receiving the 2-hit insult had substantially more C5a production at the 1-hour time point as expected (FIG. 20).
RLS-0071 was tested in a two-hit rat model of ALI. The first insult is neutrophil stimulation with lipopolysaccharide (LPS) followed 30 minutes later by a second insult of classical complement activation with incompatible erythrocytes. This model can produce dramatic neutrophil infiltration into alveolar walls, thickening the walls and reducing alveolar airspace by 85%. […] Given the short 5-minute half-life of C5a, the measurement of elevated C5a at 60 minutes is consistent with tissue generated C5a.

[1] = system: human umbilical vascular endothelial cell (HUVEC); experiment: HUVEC basement membrane matrix (Geltrex) culture, LPS-stimulated angiogenesis; assay type: cell-based; details: no CellTrace dye, compared with 3-dimensional system
Method: FIG. 36. […] Cells were applied to a layer of basement membrane matrix containing LPS to stimulate angiogenesis and cultured for 18 hours at 37° C. Angiogenesis (nascent tube formation and sprouting) was observed by light microscopy.

[2] = IV 200 mg/ml (800 mg/kg)
[3] = system: OVA/LPS rat model of neutrophilic asthma; experiment: OVA/LPS rat model of neutrophilic asthma, leucocyte quantification in BALF; details: Day 24

CC[C@H](C)[C@H](N)C(=O)N[C@@H](C)C(=O)N[C@@H](CC(C)C)C(=O)N[C@H](C(=O)N[C@@H](CC(C)C)C(=O)N[C@@H](CCC(=O)O)C(=O)N1CCC[C@H]1C(=O)N[C@H](C(=O)N[C@@H](CS)C(=O)N[C@@H](CS)C(=O)N[C@@H](CCC(N)=O)C(=O)N[C@@H](CCC(=O)O)C(=O)N[C@@H](CCCNC(=N)N)C(=O)N[C@@H](C)C(=O)N[C@@H](C)C(=O)NCCOCCOCCOCCOCCOCCOCCOCCOCCOCCOCCOCCOCCOCCOCCOCCOCCOCCOCCOCCOCCOCCOCCOCCOCCC(=O)O)[C@@H](C)CC)[C@@H](C)CC [RLS-0071]
decrease in C5a generation in the tissues (C5a; 10 mg/kg IV): 50% | C5a level in blood (C5a; all rescue doses 40 mg/kg (0.5-180 minutes), 1-hour time point, vs 2-hit only animals): significantly reduced levels of C5a | C5a level in blood (C5a; prophylactic 10, 40 and 160 mg/kg, 5-minute time point, p<0.001 each dose): significant reduction of C5a | C5a level in blood (C5a; prophylactic doses, 1-hour time point, 10 mg/kg reaching significance (p=0.002)): reduction of C5a at the 1-hour time points | C5a level in blood (C5a; rescue 40 mg/kg at 0.5, 60, 90 and 120 minutes (not 180 minutes), 5-minute time point): significantly decreased levels of C5a | angiogenesis (sprouting and tube formation) [1]: same results | time RLS-0071 could be detected in vitreous post-IVT injection (IVT 160 mg/ml in 5 microliters): up to 10 days | half-life, IVT versus IV (IVT 160 mg/ml vs IV 200 mg/ml): much longer half-life in the eye than peptide delivered intravenously | RLS-0071 level in plasma after 24 hours [2]: undetectable | neutrophil accumulation in the BALF ([3]; prophylactic 160 mg/kg IV Days 21, 22, 23, P<0.03): significant reduction in neutrophil accumulation | neutrophils in the BALF ([3]; rescue 160 mg/kg IV Days 22 and 23, P<0.1844): reduction in neutrophils but did not reach statistical significance
